The source made the active and inactive calls. The rule behind the calls is not given here.
Key:
[1] = target: Acetylcholinesterase (Electrophorus electricus, UniProt O42275); experiment: (§1) Inhibition of electric eel AChE at 20 uM using acetylthiocholine iodide as substrate preincubated for 20 mins followed by substrate addition and measured after 20 mins by Ellman's method relative to control; conditions: 20 min, 20 µM
[2] = target: T1, Cholinesterase (Equus caballus, UniProt P81908); experiment: Inhibition of equine serum BuChE using butyrylthiocholine iodide as substrate preincubated for 20 mins followed by substrate addition and measured after 20 mins by Ellman's method
[3] = target: acetylcholinesterase (AChE) (Electrophorus electricus, UniProt O42275); experiment: as §1; conditions: electric eel acetylcholinesterase enzyme, probe acetylthiocholine iodide
[4] = Octanol-water partition coefficient, log P of the compound at pH 7.4 after 24 hrs by shake flask method; format: physicochemical
[5] = target: Cholinesterase (Equus caballus) (UniProt P81908); experiment: Inhibition of equine serum BuChE at 20 uM using butyrylthiocholine iodide as substrate preincubated for 20 mins followed by substrate addition and measured after 20 mins by Ellman's method relative to control
[6] = target: T1, Cholinesterase; experiment: Non-competitive inhibition of equine serum BuChE using varying levels of butyrylthiocholine iodide as substrate preincubated for 20 mins followed by substrate addition and measured after 20 mins by Lineweaver-Burk plot analysis; conditions: read-out: Ki(app)
[7] = Cytotoxicity against rat PC12 cells assessed as cell viability up to 50 uM after 24 hrs by MTT assay relative to control
[8] = system: PC-12; experiment: Neuroprotection against H2O2-induced oxidative stress in rat PC12 cells assessed as cell viability at 25 uM preincubated for 3 hrs followed by H2O2 addition and measured after 24 hrs by MTT assay relative to control; format: functional; conditions: read-out: Activity
[9] = target: T1, Cholinesterase; experiment: Mixed-type inhibition of equine serum BuChE using varying levels of butyrylthiocholine iodide as substrate preincubated for 20 mins followed by substrate addition and measured after 20 mins by Lineweaver-Burk plot analysis; conditions: read-out: Ki(app)

Chain of Cholinesterase (Equus caballus) (P81908 whole entry): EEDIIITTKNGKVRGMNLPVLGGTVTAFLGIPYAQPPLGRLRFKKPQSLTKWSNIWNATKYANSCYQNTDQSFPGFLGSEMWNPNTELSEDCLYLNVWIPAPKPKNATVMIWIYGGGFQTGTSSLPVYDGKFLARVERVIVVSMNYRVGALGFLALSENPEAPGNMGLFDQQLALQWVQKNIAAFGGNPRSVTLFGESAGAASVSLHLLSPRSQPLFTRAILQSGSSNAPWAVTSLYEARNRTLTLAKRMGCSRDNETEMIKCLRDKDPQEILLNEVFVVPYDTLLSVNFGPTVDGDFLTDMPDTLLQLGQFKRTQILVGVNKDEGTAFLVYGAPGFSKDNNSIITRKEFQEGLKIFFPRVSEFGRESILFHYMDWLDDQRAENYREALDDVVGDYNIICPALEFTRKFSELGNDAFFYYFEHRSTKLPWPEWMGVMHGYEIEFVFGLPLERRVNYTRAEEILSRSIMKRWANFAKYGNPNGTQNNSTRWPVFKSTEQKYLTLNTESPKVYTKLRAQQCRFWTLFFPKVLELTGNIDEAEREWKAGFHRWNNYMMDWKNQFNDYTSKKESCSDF
T1 sequence (P81908 whole entry): as above
Chain of acetylcholinesterase (AChE) (O42275 whole entry): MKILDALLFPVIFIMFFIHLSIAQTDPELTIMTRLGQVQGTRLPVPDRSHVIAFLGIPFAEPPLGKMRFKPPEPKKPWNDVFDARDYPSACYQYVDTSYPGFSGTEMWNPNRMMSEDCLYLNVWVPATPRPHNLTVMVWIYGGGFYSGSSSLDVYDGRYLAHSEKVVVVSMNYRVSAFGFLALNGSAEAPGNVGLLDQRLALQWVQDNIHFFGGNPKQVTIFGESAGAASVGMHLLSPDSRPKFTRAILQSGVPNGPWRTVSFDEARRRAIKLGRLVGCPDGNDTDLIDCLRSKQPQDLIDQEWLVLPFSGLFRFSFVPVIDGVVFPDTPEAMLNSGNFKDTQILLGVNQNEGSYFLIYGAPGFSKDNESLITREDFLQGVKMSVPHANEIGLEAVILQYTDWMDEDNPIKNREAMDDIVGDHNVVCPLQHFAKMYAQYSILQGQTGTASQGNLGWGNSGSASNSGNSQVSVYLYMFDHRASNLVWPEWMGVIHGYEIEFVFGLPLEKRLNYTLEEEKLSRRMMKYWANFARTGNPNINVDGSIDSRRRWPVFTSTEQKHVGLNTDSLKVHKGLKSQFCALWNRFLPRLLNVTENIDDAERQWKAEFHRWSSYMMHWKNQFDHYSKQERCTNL
Chain of Acetylcholinesterase (O42275 whole entry): as above

| SMILES | inhibition (INH) [1] | inhibition at 20 min, 20 µM [3] [%] | inhibition [5] | also measured |
| --- | --- | --- | --- | --- |
| CC[C@@H]1Oc2c(Br)cc(Cl)cc2C2CC(C)=NN2C1=O (some centres undefined) | Not Active |  |  | IC50 [2]: 20.4 µM |
| CCC1Oc2c(Cl)cc(Cl)cc2C2CC(C)=NN2C1=O (centres undefined) |  | 26 |  | IC50 [2]: 4.67 µM; logD at 24 h [4]: 1.12 |
| CC1=NN2C(=O)COc3ccc(Cl)cc3C2C1 (centres undefined) |  | 2 | inactive |  |
| CC[C@H]1Oc2c(Br)cc(Cl)cc2C2CC(C)=NN2C1=O (some centres undefined) | Not Active |  |  | IC50 [2]: 1.14 µM |
| CC1Oc2ccc(Br)cc2C2CC(c3ccc(F)cc3)=NN2C1=O (centres undefined) | Not Active |  | 45% |  |
| CCC1Oc2ccc(Cl)cc2C2CC(C)=NN2C1=O (centres undefined) | Not Active |  |  | IC50 [2]: 12.8 µM; logD at 24 h [4]: 1.05 |
| CC1Oc2ccc(Cl)cc2C2CC(c3ccc(F)cc3)=NN2C1=O (centres undefined) | Not Active |  | 17% |  |
| O=C1COc2ccc(Br)cc2C2CC(c3ccco3)=NN12 (centres undefined) |  | 25 | 20% |  |
| CCC1Oc2c(Br)cc(Cl)cc2C2CC(C)=NN2C1=O (centres undefined) | Not Active |  |  | IC50 [2]: 2.04 µM; Ki [6]: 1.5 µM; viability at 24 h ([7]; PC12 cells): > 90%; viability at 25 µM [8]: 70%; logD at 24 h [4]: 1.57 |
| CC1=NN2C(=O)C(C)Oc3c(Br)cc(Br)cc3C2C1 (centres undefined) | Not Active |  | 11% |  |
| CCC1Oc2ccc(Br)cc2C2CC(C)=NN2C1=O (centres undefined) | Not Active |  | 39% | logD at 24 h [4]: 1.11 |
| CCC1Oc2c(Br)cc(Br)cc2C2CC(C)=NN2C1=O (centres undefined) |  | 41 |  | IC50 [2]: 2.92 µM; Ki [9]: 7.6 µM; logD at 24 h [4]: 1.08 |
| CC1=NN2C(=O)COc3c(Cl)cc(Cl)cc3C2C1 (centres undefined) |  | 25 | 31% |  |
| CC1=NN2C(=O)COc3c(Br)cc(Cl)cc3C2C1 (centres undefined) |  | 32 | 18% |  |
| COc1cc2c(cc1OC)C(=O)C(CC1CCN(Cc3ccccc3)CC1)C2 (centres undefined) [DONEPEZIL] |  |  |  | viability at 24 h ([7]; pc-12): > 90% |
| COc1cccc2c1OC(C)C(=O)N1N=C(C)CC21 (centres undefined) |  | 24 | inactive |  |
| COc1cccc2c1OCC(=O)N1N=C(C)CC21 (centres undefined) |  | 34 | 2% |  |
| CC1Oc2c(Cl)cc(Cl)cc2C2CC(c3ccco3)=NN2C1=O (centres undefined) |  | 28 | 23% |  |
| CC1=NN2C(=O)COc3ccc(Br)cc3C2C1 (centres undefined) |  | 29 | inactive |  |
| CC1=NN2C(=O)C(C)Oc3ccc(Cl)cc3C2C1 (centres undefined) | Not Active |  | 39% |  |
| CC1=NN2C(=O)COc3c(Br)cc(Br)cc3C2C1 (centres undefined) | Not Active |  | 24% |  |
| CC1=NN2C(=O)C(C)Oc3ccc(C)cc3C2C1 (centres undefined) |  | 22 | 1% |  |
| CC1=NN2C(=O)C(C)Oc3ccc(Br)cc3C2C1 (centres undefined) |  | 23 | 18% |  |
| CC1=NN2C(=O)C(C)Oc3c(Cl)cc(Cl)cc3C2C1 (centres undefined) |  | 22 |  | IC50 [2]: 5.95 µM; logD at 24 h [4]: 2.49 |
| CC1=NN2C(=O)C(C)Oc3c(Br)cc(Cl)cc3C2C1 (centres undefined) | Not Active |  |  | IC50 [2]: 11.1 µM; logD at 24 h [4]: 2.18 |
| CC1Oc2c(Br)cc(Br)cc2C2CC(c3ccc(F)cc3)=NN2C1=O (centres undefined) | Not Active |  | inactive |  |
| CC1=NN2C(=O)COc3ccc(C)cc3C2C1 (centres undefined) |  | 24 | inactive |  |

Source: ChEMBL document CHEMBL4145541, “Tricyclic pyrazolo[1,5-d][1,4]benzoxazepin-5(6H)-one scaffold derivatives: Synthesis and biological evaluation as selective BuChE inhibitors” (Eur J Med Chem, 2018)
